The values that follow come from patent US10106501B2, “Nuclear receptor modulators” (AbbVie Inc., priority 2015, dated 2018).

The target in the first assay is T1, chimeric human RORγ-Gal4 receptor (Homo sapiens, UniProt P51449).
T1 sequence (P51449 269-508 limits assumed): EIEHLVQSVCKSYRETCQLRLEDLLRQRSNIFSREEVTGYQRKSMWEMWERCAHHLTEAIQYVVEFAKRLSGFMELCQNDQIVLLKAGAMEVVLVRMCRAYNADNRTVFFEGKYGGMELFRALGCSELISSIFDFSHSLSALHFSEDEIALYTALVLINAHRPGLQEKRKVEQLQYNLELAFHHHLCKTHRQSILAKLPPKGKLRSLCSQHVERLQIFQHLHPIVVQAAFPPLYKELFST
The assay is described as follows: transient transactivation assay (RORγ-Gal4 luciferase reporter). It is filed as cell-based.
Details: not given
Usually IC50 stands for the midpoint of a concentration-inhibition curve. In turn, `Cc1cc(C#N)cc2c1cc(Cc1c(Cl)ccc(CN3CCOCC3=O)c1Cl)n2C` [Example AU, 2-(2,6-dichloro-3-((3-oxomorpholino)methyl)benzyl)-1,4-dimethyl-1H-indole-6-carbonitrile] came in with an IC50 of 0.1 to 0.5 µM.

Staying with this assay, now noted: Cos-7 cells transfected with RORγ-Gal4 and 5Gal4 pGL3 TK Luc reporter; overnight incubation; T0901317 at 10^-5 M as reference; read-out: IC50.
As for `Cn1c(Cc2c(Cl)ccc(C(=O)N3CCOCC3)c2Cl)cc2cc(C#N)ccc21` [Example AB, 2-(2,6-dichloro-3-(morpholine-4-carbonyl)benzyl)-1-methyl-1H-indole-5-carbonitrile], the IC50 fell in the range of 0.1 to 0.5 µM.

Regarding `Cn1c(Cc2c(Cl)ccc(C(=O)N3CCOCC3)c2Cl)cc2ccc(C#N)cc21` [Example AC, 2-(2,6-dichloro-3-(morpholine-4-carbonyl)benzyl)-1-methyl-1H-indole-6-carbonitrile], the IC50 lay in the range of 0.1 to 0.5 µM. Regarding `Cc1cc(C#N)cc2c1cc(C(=O)c1c(Cl)ccc(C(=O)N3CCOCC3)c1Cl)n2C` [Example AD, 2-(2,6-dichloro-3-(morpholine-4-carbonyl)benzoyl)-1,4-dimethyl-1H-indole-6-carbonitrile], the IC50 was 0.1 to 0.5 µM. Turning to `Cc1ccc(C(=O)N2CCOCC2)c(C)c1Cc1cc2c(C)cc(C#N)cc2n1C` [Example AE, 2-(2,6-dimethyl-3-(morpholine-4-carbonyl)benzyl)-1,4-dimethyl-1H-indole-6-carbonitrile], the IC50 was in the range of 0.1 to 0.5 µM.

For the compound `Cc1cc(C#N)cc2c1cc(Cc1c(Cl)ccc(O[C@H]3CC[C@@H](C(=O)O)CC3)c1Cl)n2C` [Example AF1, cis-4-(2,4-dichloro-3-((6-cyano-1,4-dimethyl-1H-indol-2-yl)methyl)phenoxy)cyclohexanecarboxylic acid], the IC50 lay in the range of 0.5 to 1 µM. As to `Cc1cc(C#N)cc2c1cc(Cc1c(Cl)ccc(O[C@H]3CC[C@H](C(=O)O)CC3)c1Cl)n2C` [Example AF, trans-4-(2,4-dichloro-3-((6-cyano-1,4-dimethyl-1H-indol-2-yl)methyl)phenoxy)cyclohexanecarboxylic acid], the IC50 lay in the range of 0.1 to 0.5 µM. On the same count and under the same terms, with `Cc1cc(C#N)cc2c1cc(Cc1c(Cl)ccc(O[C@H]3C[C@@H](C(=O)O)C3)c1Cl)n2C` [Example AH1, cis-3-(2,4-dichloro-3-((6-cyano-1,4-dimethyl-1H-indol-2-yl)methyl)phenoxy)cyclobutanecarboxylic acid] the figure was 0.5 to 1 µM. The same measure, in the same setting: with `Cc1cc(C#N)cc2c1cc(Cc1c(Cl)ccc(O[C@H]3C[C@H](C(=O)O)C3)c1Cl)n2C` [Example AH, trans-3-(2,4-dichloro-3-((6-cyano-1,4-dimethyl-1H-indol-2-yl)methyl)phenoxy)cyclobutanecarboxylic acid] the figure was 0.5 to 1 µM; with `Cc1cc(C#N)cc2c1cc(Cc1c(Cl)ccc(C(=O)N3CCC(OCC(=O)O)CC3)c1Cl)n2C` [Example AM, 2-((1-(2,4-dichloro-3-((6-cyano-1,4-dimethyl-1H-indol-2-yl)methyl)benzoyl)piperidin-4-yl)oxy)acetic acid], 1 to 10 µM; with `Cc1cc(C#N)cc2c1cc(C(=O)c1c(Cl)ccc(C(=O)N3CCC(O)CC3)c1Cl)n2C` [Example AN, 2-(2,6-dichloro-3-(4-hydroxypiperidine-1-carbonyl)benzoyl)-1,4-dimethyl-1H-indole-6-carbonitrile], < 0.1 µM. The same measure, in the same setting: with `Cc1cc(C(F)(F)F)cc2c1cc(C(=O)c1c(Cl)ccc(CO)c1Cl)n2C` [Example AR, (2,6-dichloro-3-(hydroxymethyl)phenyl)(1,4-dimethyl-6-(trifluoromethyl)-1H-indol-2-yl)methanone] the figure was 1 to 10 µM; with `CCOC(=O)CN1CCN(C(=O)c2ccc(Cl)c(Cc3cc4c(C)cc(C(F)(F)F)cc4n3C)c2Cl)CC1` [Example AV, ethyl 2-(4-(2,4-dichloro-3-((1,4-dimethyl-6-(trifluoromethyl)-1H-indol-2-yl)methyl)benzoyl)piperazin-1-yl)acetate], 0.1 to 0.5 µM; with `Cc1cc(Br)cc2c1cc(Cc1c(Cl)ccc(C(=O)N3CCOCC3)c1Cl)n2C` [Example AX, (3-((6-bromo-1,4-dimethyl-1H-indol-2-yl)methyl)-2,4-dichlorophenyl)(morpholino)methanone], < 0.1 µM. Regarding `Cc1cc(N2CCOCC2)cc2c1cc(Cc1c(Cl)ccc(C(=O)N3CCOCC3)c1Cl)n2C` [Example AY, (2,4-dichloro-3-((1,4-dimethyl-6-morpholino-1H-indol-2-yl)methyl)phenyl)(morpholino)methanone], the IC50 was < 0.1 µM. The same measure, in the same setting: with `Cc1cc(C(F)(F)F)cc2c1cc(Cc1c(Cl)ccc(C(=O)N3CCC(C(=O)O)C(F)(F)C3)c1Cl)n2C` (stereo not shown) [Example AZ, 1-(2,4-dichloro-3-((1,4-dimethyl-6-(trifluoromethyl)-1H-indol-2-yl)methyl)benzoyl)-3,3-difluoropiperidine-4-carboxylic acid] the figure was < 0.1 µM; with `Cc1cc(C(F)(F)F)cc2c1cc(Cc1c(Cl)ccc(C(=O)N3CCC(C(=O)O)C(C)C3)c1Cl)n2C` (stereo not shown) [Example B-1, 1-(2,4-dichloro-3-((1,4-dimethyl-6-(trifluoromethyl)-1H-indol-2-yl)methyl)benzoyl)-3-methylpiperidine-4-carboxylic acid], < 0.1 µM. The same measure, in the same setting: with `Cc1cc(C(F)(F)F)cc2c1cc(Cc1c(Cl)ccc(C(=O)N3CCC(OCC(=O)O)CC3)c1Cl)n2C` [Example B-2] the figure was < 0.1 µM. With `Cc1cc(C(F)(F)F)cc2c1cc(Cc1c(Cl)ccc(C(=O)N3CCC(C(=O)O)C3)c1Cl)n2C` (stereo not shown) [Example B-3], the IC50 was 0.1 to 0.5 µM.

In the case of `Cc1cc(C(F)(F)F)cc2c1cc(Cc1c(Cl)ccc(C(=O)N3CC(C)(C(=O)O)C3)c1Cl)n2C` [Example B-5], the IC50 is 0.1 to 0.5 µM. On the same count and under the same terms, with `Cc1cc(C(F)(F)F)cc2c1cc(Cc1c(Cl)ccc(C(=O)N3CCC(CC(=O)O)C3)c1Cl)n2C` (stereo not shown) [Example B-6] the figure was < 0.1 µM. Same read-out and setting: with `Cc1cc(C(F)(F)F)cc2c1cc(Cc1c(Cl)ccc(C(=O)N3CCC(CC(=O)O)CC3)c1Cl)n2C` [Example B-7] the figure was < 0.1 µM; with `Cc1cc(C(F)(F)F)cc2c1cc(Cc1c(Cl)ccc(C(=O)N3C[C@@H]4C(C(=O)O)[C@@H]4C3)c1Cl)n2C` (stereo partly shown) [Example B-8], < 0.1 µM; with `Cc1cc(C(F)(F)F)cc2c1cc(Cc1c(Cl)ccc(C(=O)N3CC(CC(=O)O)C3)c1Cl)n2C` [Example B-9], < 0.1 µM. For the compound `Cc1cc(C(F)(F)F)cc2c1cc(Cc1c(Cl)ccc(C(=O)N3CCC(O)C(C(=O)O)C3)c1Cl)n2C` (stereo not shown) [Example B-10], the IC50 was in the range of 1 to 10 µM. As for `Cc1cc(C(F)(F)F)cc2c1cc(Cc1c(Cl)ccc(C(=O)N3CCCC(C(=O)O)C3)c1Cl)n2C` (stereo not shown) [Example B-11], the IC50 fell in the range of 0.1 to 0.5 µM. With `Cc1cc(C(F)(F)F)cc2c1cc(Cc1c(Cl)ccc(C(=O)N3CCC(C)(C(=O)O)CC3)c1Cl)n2C` [Example B-13], the half-inhibitory concentration (IC50) lay in the range of 0.1 to 0.5 µM.

Consider `Cc1cc(C(F)(F)F)cc2c1cc(Cc1c(Cl)ccc(C(=O)N3CCC(F)(C(=O)O)CC3)c1Cl)n2C` [Example B-14], for which the half-maximal inhibitory concentration (IC50) lay within 0.1 to 0.5 µM. The same measure, in the same setting: with `COC[C@@H]1CN(C(=O)c2ccc(Cl)c(Cc3cc4c(C)cc(C(F)(F)F)cc4n3C)c2Cl)C[C@H]1C(=O)O` [Example B-15] the figure was 1 to 10 µM; with `Cc1cc(C(F)(F)F)cc2c1cc(Cc1c(Cl)ccc(C(=O)N3C[C@@]4(C(=O)O)CC[C@@H]3C4)c1Cl)n2C` [Example B-16], 0.1 to 0.5 µM. With `Cc1cc(C(F)(F)F)cc2c1cc(Cc1c(Cl)ccc(C(=O)N3CC4(CC(CC(=O)O)C4)C3)c1Cl)n2C` [Example B-17], the IC50 was < 0.1 µM. In the case of `Cc1cc(C(F)(F)F)cc2c1cc(Cc1c(Cl)ccc(C(=O)N3CC4(CC(C(=O)O)C4)C3)c1Cl)n2C` [Example B-18], the IC50 is < 0.1 µM. As to `Cc1cc(C(F)(F)F)cc2c1cc(Cc1c(Cl)ccc(C(=O)N3CCC(C(C)C(=O)O)CC3)c1Cl)n2C` (stereo not shown) [Example B-19], the IC50 is < 0.1 µM. Same read-out and setting: with `Cc1cc(C(F)(F)F)cc2c1cc(Cc1c(Cl)ccc(C(=O)N3CCC(C(O)C(=O)O)CC3)c1Cl)n2C` (stereo not shown) [Example B-20] the figure was < 0.1 µM; with `Cc1cc(C(F)(F)F)cc2c1cc(Cc1c(Cl)ccc(C(=O)N3CCC(CC(=O)O)C(C)C3)c1Cl)n2C` (stereo not shown) [Example B-21], < 0.1 µM. `Cc1cc(C(F)(F)F)cc2c1cc(Cc1c(Cl)ncc(C(=O)N3CCC(CC(=O)O)CC3)c1Cl)n2C` [Example B-22]: the IC50 is < 0.1 µM. Same read-out and setting: with `Cc1cc(C(F)(F)F)cc2c1cc(Cc1c(Cl)ccc(C(=O)N3CCC(C(C)(C)C(=O)O)CC3)c1Cl)n2C` [Example B-23] the figure was < 0.1 µM. Regarding `Cc1cc(C(F)(F)F)cc2c1cc(Cc1c(Cl)ccc(C(=O)N3CCC(CCC(=O)O)CC3)c1Cl)n2C` [Example B-24], the IC50 was < 0.1 µM. Turning to `Cc1cc(C(F)(F)F)cc2c1cc(Cc1c(Cl)ccc(C(=O)N[C@H]3CC[C@@H](C(=O)O)CC3)c1Cl)n2C` [Example B-25], the IC50 was < 0.1 µM.

As to `Cc1cc(C(F)(F)F)cc2c1cc(Cc1c(Cl)ccc(C(=O)N3CC[C@H](C(=O)O)[C@@H](C)C3)c1Cl)n2C` [Example B-26], the IC50 is < 0.1 µM.

Consider `Cc1cc(C(F)(F)F)cc2c1cc(Cc1c(Cl)ccc(C(=O)N3CCC(C(=O)O)C(F)C3)c1Cl)n2C` (stereo not shown) [Example BA, 1-(2,4-dichloro-3-((1,4-dimethyl-6-(trifluoromethyl)-1H-indol-2-yl)methyl)benzoyl)-3-fluoropiperidine-4-carboxylic acid], for which the IC50 is < 0.1 µM. Consider `Cc1ncc(C(=O)N2CCOCC2)c(C)c1Cc1cc2c(C)cc(C(F)(F)F)cc2n1C` [Example BB, (5-((1,4-dimethyl-6-(trifluoromethyl)-1H-indol-2-yl)methyl)-4,6-dimethylpyridin-3-yl)(morpholino)methanone], for which the IC50 fell in the range of 0.5 to 1 µM. Regarding `Cc1ncc(C(=O)N2CCC(CC(=O)O)CC2)c(C)c1Cc1cc2c(C)cc(C(F)(F)F)cc2n1C` [Example BC, 2-(1-(5-((1,4-dimethyl-6-(trifluoromethyl)-1H-indol-2-yl)methyl)-4,6-dimethylnicotinoyl)piperidin-4-yl)acetic acid], the IC50 fell in the range of 0.1 to 0.5 µM.
